Measured values from patent US5366981A, “N-acyl-substituted azacyclic compounds, processes for their preparaion, and their use as pharmaceuticals” (Dr Lo Zambeletti S.p.A., priority 1989, dated 1994).
Where a name gives a salt, the structure may show the parent alone.

How the values were obtained:
mice [1] = test: P-phenylquinone-induced abdominal writhing test in mice; type: in vivo, Male Charles River mice (Swiss Strain); conditions: Mus musculus, sc, 20 min; s.c.; 20 min pretreatment; p-phenylquinone 2 mg/Kg i.p.; graded protection; read-out: ANALGESIA MOUSE WRITHING ED50
Method: A) P-phenylquinone-induced abdominal writhing test in mice
The methodology employed is based on that described by Sigmund et al, Proc. Soc. Exptl. Biol. 95, 729/1957, modified by Milne and Twomey, Agents and Actions, 10, 31/1980.
Male Charles River mice (Swiss Strain), 25-36 g body weight, were used. Animals were allowed food and water ad libitum and were randomized into groups of 10 prior to experimentation. Test compounds were dissolved in either distilled water or distilled water plus 0.1M AMS, and administered by the subcutaneous route in a final volume of 10 ml/Kg. Control animals received 10 ml/Kg of the appropriate vehicle alone. Following a pretreatment period of 20 min., mice were injected intraperitoneally with p-phenylquinone, 2 mg/Kg at 37° C. in a final volume of […]. […] During this period the number of abdominal writhing responses per animal were recorded where writhing consists of an intermittent contraction of the abdomen associated with hind leg extension.
The degree of antinociceptive protection afforded by the test compound was determined as the mean number of writhing responses observed in the treated group (T) expressed as a percentage of the mean number of writhing responses in the control group (C) according to the following formula:
[1-(T/C]×100%=% graded protection

mice [2] = test: Tail-flick test in mice; type: in vivo, Male Charles River mice (Swiss Strain); conditions: Mus musculus, sc, 0.5 h; s.c.; 30 min pretreatment; quantal protection (reaction time doubled); read-out: ANALGESIA MOUSE TAIL-FLICK ED50
Method: B) Tail-flick test in mice
The methodology employed is based on that described by D'Amour and Smith, J. Pharmacol. Exp. Ther. 72, 74/1941.
Male Charles River mice (Swiss Strain), 22-34 g body weight were used. Animals were allowed food and water ad libitum and were randomized into groups of 10 prior to experimentation.
Test compounds were dissolved in either distilled water or distilled water plus 0.1M AMS and administered by the subcutaneous route in a final volume of 10 ml/Kg. Control animals received 10 ml/kg of the appropriate vehicle alone. Following a pretreatment period of 30 min., the mice were again placed under the heat source and the reaction tine re-determined.
Percentage quantal protection was determined as the number of mice in which the reaction time was doubled compared to pretreatment values, expressed as a percentage of the total number of mice in the group.

Molecule `CC1(C)CN(C(=O)Cc2ccc(Cl)c(Cl)c2)C(CN2CC=CC2)c2ccccc21` (centres unmarked) [Example 6, 1-(3-pyrrolin-1-yl)methyl-2-(3,4-dichlorophenyl)acetyl-4,4-dimethyl-1,2,3,4-tetrahydroisoquinoline hydrochloride] has an ED50 (mice [1]) of 0.047 mg/kg and an ED50 (mice [2]) of 0.275 mg/kg.
Work on `O=C(Cc1ccc(Cl)c(Cl)c1)N1CCc2ccccc2C1CN1CC=CC1` (centres unmarked) [Example 5, 1-(3-pyrrolin-1-yl)methyl-2-(3,4-dichlorophenyl)acetyl-1,2,3,4-tetrahydroisoquinoline hydrochloride] yielded an ED50 (mice [1]) of 0.005 mg/kg and an ED50 (mice [2]) of 0.015 mg/kg.
`CC1(C)CN(C(=O)Cc2ccc(Cl)c(Cl)c2)C(CN2CC=CC2)c2ccsc21.Cl` (centres unmarked) [Example 8, 4-(3-pyrrolin-1-yl)methyl-5-(3,4-dichlorophenyl)acetyl-7,7-dimethyl-4,5,6,7-tetrahydrothieno[3,2-c]pyridine hydrochloride] showed an ED50 (mice [1]) of 0.04 mg/kg and an ED50 (mice [2]) of 0.55 mg/kg.
`O=C(Cc1ccc(Cl)c(Cl)c1)N1CCCC[C@H]1CN1CC=CC1` [Example 1, (2S)-1-(3,4-dichlorophenyl)acetyl-2-(3-pyrrolin-1-yl)methyl piperidine hydrochloride] showed an ED50 (mice [1]) of 0.005 mg/kg and an ED50 (mice [2]) of 0.045 mg/kg.
For `CC1(C)CCCN(C(=O)Cc2ccc(Cl)c(Cl)c2)C1CN1CC=CC1` (centres unmarked) [Example 2, 1-(3,4-dichlorophenyl)acetyl-2-(3-pyrrolin-1-yl)methyl-3,3-dimethyl piperidine hydrochloride], the ED50 (mice [1]) was 0.006 mg/kg and the ED50 (mice [2]) was 0.021 mg/kg.
`CC1(C)CCCN(C(=O)Cc2ccc(C(F)(F)F)cc2)C1CN1CC=CC1` (centres unmarked) [Example 3, 1-(4-trifluoromethylphenyl)acetyl-2-(3-pyrrolin-1-yl)methyl-3,3-dimethyl piperidine hydrochloride] gave an ED50 (mice [1]) of 0.006 mg/kg and an ED50 (mice [2]) of 0.015 mg/kg.
`CC1(C)CCCN(C(=O)Cc2ccc3c(c2)CCCC3)C1CN1CC=CC1` (centres unmarked) [Example 4, 1-(5,6,7,8-tetrahydronapht-2-yl)acetyl-2-(3-pyrrolin-1-yl) methyl-3,3-dimethyl piperidine hydrochloride] gave an ED50 (mice [1]) of 0.025 mg/kg and an ED50 (mice [2]) of 0.193 mg/kg.
For `O=C1CCCc2cc(CC(=O)N3CCCC[C@H]3CN3CC=CC3)ccc21` [Example 9, (2S)-1-[1-oxo-3,4-dihydro-(2H)-napht-6-yl]acetyl-2-(3-pyrrolin-1-yl)methyl piperidine hydrochloride], the ED50 (mice [1]) was 0.023 mg/kg and the ED50 (mice [2]) was 0.316 mg/kg.
With `CC1(C)CCCN(C(=O)Cc2ccc3c(c2)CCCC3=O)C1CN1CC=CC1` (centres unmarked) [Example 10, 1-[1-oxo-3,4-dihydro-(2H)-napht-6-yl]acetyl-2-(3-pyrrolin-1-yl)methyl-3,3-dimethyl piperidine hydrochloride] the ED50 (mice [1]) was 0.053 mg/kg and the ED50 (mice [2]) was 0.594 mg/kg.
For `O=C(Cc1ccc(Cl)c(Cl)c1)N1CCc2sccc2C1CN1CC=CC1` (centres unmarked) [Example 7, 4-(3-pyrrolin-1-yl)methyl-5-(3,4-dichlorophenyl)acetyl-4,5,6,7-tetrahydrothieno[3,2-c]pyridine hydrochloride hemihydrate], the ED50 (mice [1]) was 0.002 mg/kg and the ED50 (mice [2]) was 0.008 mg/kg.
